This is an account of results in patent US12391706B2, “Multi-target tyrosine kinase inhibitor” (SHENZHEN NEPTUNUS PHARMACEUTICAL RESEARCH INSTITUTE CO., …, priority 2020, dated 2025).

The structures appear in SMILES notation.

Tested on in the first series: not listed separately
The series is described as follows: Solubility test (water), Chinese Pharmacopoeia 2015. The series is classed as physicochemical. The following applies: 25° C.±2° C., dissolution within 30 minutes. The protocol:
The series of compounds synthesized in Examples 1-24 were subjected to solubility test (water), according to the solubility test methods in Chinese Pharmacopoeia, 2015 Edition. The specific test operations and evaluation criteria are as follows: An appropriate amount (1 mg-10 mg) of finely powdered compound was weighed, placed in a certain volume of solvent at 25° C.±2° C., and shaken vigorously for 30 seconds every 5 minutes; the dissolution within 30 minutes was observed. It was considered completely dissolved if there were no visible particles or droplets of the solute. [table]
Take `CC(C(=O)OCCn1cc(-c2cc3nccc(Oc4ccc(NC(=O)C5(C(=O)Nc6ccc(F)cc6)CC5)cc4F)c3s2)cn1)N(C)C` (stereo not drawn) [td32-4P18, 2-(4-(7-(2-fluoro-4-(1-((4-fluorophenyl)carbamoyl)cyclopropane-1-carboxamide)phenoxy)thieno[3,2-b]pyridin-2-yl)-1H-pyrazolyl-1-yl)ethyl N,N-dimethyl alaninate]: the “Water solubility test Result” value is reported as “D (1 g of solute is soluble in 30~100 mL of sovent)”.
Regarding `NC(=O)CCC(N)C(=O)OCCn1cc(-c2cc3nccc(Oc4ccc(NC(=O)C5(C(=O)Nc6ccc(F)cc6)CC5)cc4F)c3s2)cn1` (stereo not drawn) [td32-4P15, 2-(4-(7-(2-fluoro-4-(1-((4-fluorophenyl)carbamoyl)cyclopropane-1-carboxamide)phenoxy)thieno[3,2-b]pyridin-2-yl)-1H-pyrazolyl-1-yl)ethyl glutaminate], the “Water solubility test Result” value was “D (1 g of solute is soluble in 30~100 mL of sovent)”.
Consider `CN1CCN(Cc2ccc(C(=O)OCCn3cc(-c4cc5nccc(Oc6ccc(NC(=O)C7(C(=O)Nc8ccc(F)cc8)CC7)cc6F)c5s4)cn3)cc2)CC1` [td32-4P21, 2-(4-(7-(2-fluoro-4-(1-((4-fluorophenyl)carbamoyl)cyclopropane-1-carboxamide)phenoxy)thieno[3,2-b]pyridin-2-yl)-1H-pyrazol-1-yl)ethyl 4-((methylpiperazin-1-yl)methyl) benzoate], for which the “Water solubility test Result” value is “D (1 g of solute is soluble in 30~100 mL of sovent)”.
Regarding `O=C(OCCn1cc(-c2cc3nccc(Oc4ccc(NC(=O)C5(C(=O)Nc6ccc(F)cc6)CC5)cc4F)c3s2)cn1)c1ccc(CN2CCCC2)cc1` [td32-4P23], the “Water solubility test Result” value was “D (1 g of solute is soluble in 30~100 mL of sovent)”.
Same read-out and setting: under `O=C(Nc1ccc(F)cc1)C1(C(=O)Nc2ccc(Oc3ccnc4cc(-c5cnn(CCOP(=O)(O)O)c5)sc34)c(F)c2)CC1` [td32-4P2, 2-(4-(7-(2-fluoro-4-(1-((4-fluorophenyl)carbamoyl)cyclopropane-1-carboxamide)phenoxy)thieno[3,2-b]pyridin-2-yl)-1H-pyrazolyl-1-yl)ethyl phosphate] stands “F (1 g of solute is soluble in 1000~10000 mL of sovent)”; under `CC(N)C(=O)OCCn1cc(-c2cc3nccc(Oc4ccc(NC(=O)C5(C(=O)Nc6ccc(F)cc6)CC5)cc4F)c3s2)cn1` (stereo not drawn) [td32-4P7, 2-(4-(7-(2-fluoro-4-(1-((4-fluorophenyl)carbamoyl)cyclopropane-1-carboxamide)phenoxy)thieno[3,2-b]pyridin-2-yl)-1H-pyrazolyl-1-yl)ethyl alaninate], “D (1 g of solute is soluble in 30~100 mL of sovent)”; under `CC(C)CC(N)C(=O)OCCn1cc(-c2cc3nccc(Oc4ccc(NC(=O)C5(C(=O)Nc6ccc(F)cc6)CC5)cc4F)c3s2)cn1` (stereo not drawn) [td32-4P8, 2-(4-(7-(2-fluoro-4-(1-((4-fluorophenyl)carbamoyl)cyclopropane-1-carboxamide)phenoxy)thieno[3,2-b]pyridin-2-yl)-1H-pyrazolyl-1-yl)ethyl leucinate], “E (1 g of solute is soluble in 100~1000 mL of sovent)”.
In the case of `O=C(O)CCC(=O)OCCn1cc(-c2cc3nccc(Oc4ccc(NC(=O)C5(C(=O)Nc6ccc(F)cc6)CC5)cc4F)c3s2)cn1` [td32-4P1, 4-(2-(4-(7-(2-fluoro-4-(1-((4-fluorophenyl)carbamoyl)cyclopropane-1-carboxamide)phenoxy)thieno[3,2-b]pyridin-2-yl)-1H-pyrazolyl-1-yl)ethoxy)-4-oxobutyric acid], the “Water solubility test Result” value is “F (1 g of solute is soluble in 1000~10000 mL of sovent)”.
With `CN1CCN(Cc2cccc(C(=O)OCCn3cc(-c4cc5nccc(Oc6ccc(NC(=O)C7(C(=O)Nc8ccc(F)cc8)CC7)cc6F)c5s4)cn3)c2)CC1` [td32-4P22, 2-(4-(7-(2-fluoro-4-(1-((4-fluorophenyl)carbamoyl)cyclopropane-1-carboxamide)phenoxy)thieno[3,2-b]pyridin-2-yl)-1H-pyrazolyl-1-yl)ethyl 3-((methylpiperazin-1-yl)methyl) benzoate], the “Water solubility test Result” value was “D (1 g of solute is soluble in 30~100 mL of sovent)”.
Turning to `NC(Cc1ccccc1)C(=O)OCCn1cc(-c2cc3nccc(Oc4ccc(NC(=O)C5(C(=O)Nc6ccc(F)cc6)CC5)cc4F)c3s2)cn1` [td32-4P12, 2-(4-(7-(2-fluoro-4-(1-((4-fluorophenyl)carbamoyl)cyclopropane-1-carboxamide)phenoxy)thieno[3,2-b]pyridin-2-yl)-1H-pyrazolyl-1-yl)ethyl L-phenylalaninate], the “Water solubility test Result” value is “F (1 g of solute is soluble in 1000~10000 mL of sovent)”.
With `O=C(OCCn1cc(-c2cc3nccc(Oc4ccc(NC(=O)C5(C(=O)Nc6ccc(F)cc6)CC5)cc4F)c3s2)cn1)C1CCCN1` (stereo not drawn) [td32-4P13, 2-(4-(7-(2-fluoro-4-(1-((4-fluorophenyl)carbamoyl)cyclopropane-1-carboxamide)phenoxy)thieno[3,2-b]pyridin-2-yl)-1H-pyrazolyl-1-yl)ethyl prolinate], the “Water solubility test Result” value is on record as “E (1 g of solute is soluble in 100~1000 mL of sovent)”.
`O=C(OCCn1cc(-c2cc3nccc(Oc4ccc(NC(=O)C5(C(=O)Nc6ccc(F)cc6)CC5)cc4F)c3s2)cn1)c1cccc(CN2CCOCC2)c1` [td32-4P20, 2-(4-(7-(2-fluoro-4-(1-((4-fluorophenyl)carbamoyl)cyclopropane-1-carboxamide)phenoxy)thieno[3,2-b]pyridin-2-yl)-1H-pyrazolyl-1-yl)ethyl 3-(morpholinylmethyl) benzoate]: the “Water solubility test Result” value is recorded as “F (1 g of solute is soluble in 1000~10000 mL of sovent)”.
Turning to `O=C(OCCn1cc(-c2cc3nccc(Oc4ccc(NC(=O)C5(C(=O)Nc6ccc(F)cc6)CC5)cc4F)c3s2)cn1)c1cccc(CN2CCCC2)c1` [td32-4P24], the “Water solubility test Result” value is “D (1 g of solute is soluble in 30~100 mL of sovent)”.
For `CCC(C)C(N)C(=O)OCCn1cc(-c2cc3nccc(Oc4ccc(NC(=O)C5(C(=O)Nc6ccc(F)cc6)CC5)cc4F)c3s2)cn1` (stereo not drawn) [td32-4P9, 2-(4-(7-(2-fluoro-4-(1-(4-fluorophenyl)carbamoyl)cyclopropane-1-carboxamide)phenoxy)thieno[3,2-b]pyridin-2-yl)-1H-pyrazolyl-1-yl)ethyl isoleucinate], the “Water solubility test Result” value is “D (1 g of solute is soluble in 30~100 mL of sovent)”.
As to `CSCCC(N)C(=O)OCCn1cc(-c2cc3nccc(Oc4ccc(NC(=O)C5(C(=O)Nc6ccc(F)cc6)CC5)cc4F)c3s2)cn1` (stereo not drawn) [td32-4P11, 2-(4-(7-(2-fluoro-4-(1-((4-fluorophenyl)carbamoyl)cyclopropane-1-carboxamide)phenoxy)thieno[3,2-b]pyridin-2-yl)-1H-pyrazolyl-1-yl)ethyl methioninate], the “Water solubility test Result” value is on record as “E (1 g of solute is soluble in 100~1000 mL of sovent)”.
In the case of `CCN(CC)CC(=O)OCCn1cc(-c2cc3nccc(Oc4ccc(NC(=O)C5(C(=O)Nc6ccc(F)cc6)CC5)cc4F)c3s2)cn1` [td32-4P4, 2-(4-(7-(2-fluoro-4-(1-((4-fluorophenyl)carbamoyl)cyclopropane-1-carboxamide)phenoxy)thieno[3,2-b]pyridin-2-yl)-1H-pyrazolyl-1-yl)ethyldiethyl glycinate], the “Water solubility test Result” value was “C (1 g of solute is soluble in 10~30 mL of sovent)”.
As to `NC(=O)CC(N)C(=O)OCCn1cc(-c2cc3nccc(Oc4ccc(NC(=O)C5(C(=O)Nc6ccc(F)cc6)CC5)cc4F)c3s2)cn1` (stereo not drawn) [td32-4P14, 2-(4-(7-(2-fluoro-4-(1-((4-fluorophenyl)carbamoyl)cyclopropane-1-carboxamide)phenoxy)thieno[3,2-b]pyridin-2-yl)-1H-pyrazolyl-1-yl)ethyl asparaginate], the “Water solubility test Result” value was “D (1 g of solute is soluble in 30~100 mL of sovent)”.
Still for that read-out and setting: the value for `O=C(CN1CCOCC1)OCCn1cc(-c2cc3nccc(Oc4ccc(NC(=O)C5(C(=O)Nc6ccc(F)cc6)CC5)cc4F)c3s2)cn1` [td32-4P5, 2-(4-(7-(2-fluoro-4-(1-((4-fluorophenyl)carbamoyl)cyclopropane-1-carboxamide)phenoxy)thieno[3,2-b]pyridin-2-yl)-1H-pyrazolyl-1-yl)ethyl 2-morpholine acetate] was “C (1 g of solute is soluble in 10~30 mL of sovent)”.
Same read-out and setting: under `O=C(OCCn1cc(-c2cc3nccc(Oc4ccc(NC(=O)C5(C(=O)Nc6ccc(F)cc6)CC5)cc4F)c3s2)cn1)c1ccc(CN2CCOCC2)cc1` [td32-4P19, 2-(4-(7-(2-fluoro-4-(1-((4-fluorophenyl)carbamoyl)cyclopropane-1-carboxamide)phenoxy)thieno[3,2-b]pyridin-2-yl)-1H-pyrazolyl-1-yl)ethyl 4-(morpholinylmethyl) benzoate] stands “F (1 g of solute is soluble in 1000~10000 mL of sovent)”.
On the same count and under the same terms, under `COC(CNCC(=O)OCCn1cc(-c2cc3nccc(Oc4ccc(NC(=O)C5(C(=O)Nc6ccc(F)cc6)CC5)cc4F)c3s2)cn1)OC` [td32-4P17, 2-(4-(7-(2-fluoro-4-(1-((4-fluorophenyl)carbamoyl)cyclopropane-1-carboxamide)phenoxy)thieno[3,2-b]pyridin-2-yl)-1H-pyrazolyl-1-yl)ethyl(2,2-dimethoxyethyl) glycinate] stands “E (1 g of solute is soluble in 100~1000 mL of sovent)”.

The next series relates to MKN-45 gastric cancer cells. The series is described as follows: Gastric cancer cell MKN45 xenograft model. The following applies: oral 100 mg·kg^−1 once a day for 14 days. In kind it is in vivo, nude mice. An excerpt: • 1. Compounds (td32-4, td32-4P3, td32-4P6, td32-4P9, td32-4P10) were selected for in vivo activity evaluation at a single concentration. The animal model was gastric cancer cell MKN45 xenograft model.
Test method: 5×10^6 MKN-45 gastric cancer cells were inoculated under the fat pad of the right rib of nude mice, and the tumor formation was observed. Two weeks after the inoculation, the tumor-bearing mice were divided into groups and orally administered with td32-4, td32-4P3, td32-4P6, td32-4P9, and td32-4P10 at a dose of 100 mg·kg^−1, once a day for 14 days, respectively. Tumor volumes were measured with a caliper and recorded.
`CCC(C)C(N)C(=O)OCCn1cc(-c2cc3nccc(Oc4ccc(NC(=O)C5(C(=O)Nc6ccc(F)cc6)CC5)cc4F)c3s2)cn1` (stereo not drawn) [td32-4P9, 2-(4-(7-(2-fluoro-4-(1-(4-fluorophenyl)carbamoyl)cyclopropane-1-carboxamide)phenoxy)thieno[3,2-b]pyridin-2-yl)-1H-pyrazolyl-1-yl)ethyl isoleucinate]: the “tumor inhibitory effect (tumor volume)” value is “potent tumor inhibitory effect”.
